Structures can show the parent of a compound that is named as a salt.
Columns and labels:
[1] = Phase 1 crossover relative bioavailability study, Part 1: fedratinib plasma PK; assay type: in vivo, human; conditions: for AUC0-t / Cmax: plasma
Protocol: (§1) An open-label, single-site, 2-part crossover study will be conducted in healthy adult subjects. This study will evaluate the RBA of 400 mg fedratinib when administered orally as contents of capsules dispersed in a nutritional supplement or via NG tube or administered orally as intact capsules with a nutritional supplement as a divided dose (200 mg BID) in comparison to intact capsules with a nutritional supplement. Each study part will consist of a randomized, multiple-sequence, open-label design. The study parts can be run in any order or in parallel. Subjects may participate in 1 part only. Each study part will consist of Screening, a Treatment phase (including baseline), and a Follow-up phone call. There will be a washout period of at least 12 days between each dose of fedratinib.
Part 1 will consist of a randomized, 2-period, 2-sequence, open-label design. Subjects will be screened for eligibility. Subjects who meet all inclusion criteria and none of the exclusion criteria will return to the study center on Day-1 for protocol-specified assessments and the start of domiciling; subjects will remain domiciled at the study center throughout both study periods.
(§2) On the evening before each dosing, all subjects will begin an overnight fast of at least 10 hours prior to dosing. No food or beverages (except water and any nutritional supplement administered with IP) will be allowed for at least 4 hours after dosing. Water is allowed as desired except for 1 hour before and 1 hour after each dosing. Each dose, with the exception of Treatment 2B, will be administered orally with approximately 240 mL noncarbonated, room temperature water. Dose modifications or interruptions are not permissible in this study.
Each subject will receive the following treatments across 2 study periods: • Treatment 1A=oral administration of a single 400-mg dose of fedratinib (4×100-mg capsules) with a nutritional supplement (reference) • Treatment 1B=oral administration of a single 400-mg dose of fedratinib with contents of 4×100-mg capsules dispersed in a nutritional supplement (test)
(§3) All planned doses will be administered with a commercially available nutritional supplement (e.g., Ensure Plus® or Boost Plus®). The chosen nutritional supplement will be used throughout the study. The volume of nutritional supplement to be administered with each dose will be (e.g., approximately 180 mL).
(§4) Blood samples (approximately 3 mL each) for the measurement of fedratinib concentrations in plasma will collected at the following time points: • Treatment 1A, 1B, 2A and 2B: pre dose (0 hour) and at 0.5, 1, 1.5, 2, 3, 4, 6, 8, 12, 24, 48, 72, 120, 168, 192, and 240 hours post dose. • Treatment 2C: pre dose (0 hour) and at 0.5, 1, 1.5, 2, 3, 4, 6, 8, 12 (pre dose of the second dose), 12.5, 13, 13.5, 14, 15, 16, 18, 24, 48, 72, 120, 168, 192, and 240 hours post dose of the first dose.
(§5) Fedratinib plasma PK concentrations will be measured using a validated liquid chromatography tandem mass spectrometry assay
Fedratinib plasma PK parameters will be calculated using noncompartmental methods. The following key PK parameters will be estimated as allowed by the data: • Maximum observed plasma concentration (Cmax) • Area under the plasma concentration-time curve (AUC) from time zero to the last
To estimate the RBA for Treatments 1B in comparison with Treatment 1A, an ANOVA with treatment, period, and sequence as fixed effects, and subject nested within sequence as a random effect will be performed on the natural log-transformed Cmax, AUC (0-T), and AUC (INF). The geometric means along with ratios of the geometric means (test/reference) and associated 90% confidence intervals will be presented.

[2] = Effect of meals on fedratinib pharmacokinetics; assay type: in vivo, human; conditions: high-fat, high-calorie meal (approx. 815 calories, 52% fat) and low-fat, low-calorie meal (approx. 162 calories, 6% fat)
Protocol: (§6) Thus, fedratinib can be taken with or without regard to food. Moreover, the most frequently reported gastrointestinal (GI)-related treatment-emergent adverse events, such as nausea and vomiting, are less frequent in the fed state (62.5% and 16.7%,) than in the fasting state (87.5% and 66.7%) in subjects receiving a 500 mg fedratinib. Therefore, administration in the fed state, i.e., with nutritional supplement can reduce the incidence of nausea and vomiting.

[3] = Population pharmacokinetics analysis of cumulative data from 452 patients; assay type: in vivo, human; conditions: age 20 to 95 years, body weight 40 to 135 kg
[4] = GI-related treatment-emergent adverse events, fed vs fasting state; assay type: in vivo, human; conditions: subjects receiving 500 mg fedratinib
Protocol: as §6

[5] = Safety and tolerability in the Phase 1 study; assay type: in vivo, human; conditions: healthy adult subjects, fedratinib 400 mg, Parts 1 and 2
Excerpt: During the study, blood samples will be collected at prespecified times for PK. Subject safety will be monitored throughout the study. The study will be conducted in compliance with the International Council on Harmonization (ICH) of Technical Requirements for Registration of Pharmaceuticals for Human Use/Good Clinical Practice (GCP) and applicable regulatory requirements.

[6] = test system: STAT3/STAT5; conditions: patient-derived cell lines expressing JAK2V617F and cells engineered to express WT JAK2 or JAK2V617F; cited from earlier work
[7] = Phase 1 crossover relative bioavailability study, Part 2: fedratinib plasma PK; assay type: in vivo, human; conditions: for AUC0-∞: geometric mean, one participant excluded (pAUCe >20%); for AUC0-t / Cmax: n = 30, geometric mean, plasma
Protocol: as §1
Part 2 will consist of a randomized, 3-period, 6-sequence, open-label design. Subjects will be screened for eligibility. Subjects who meet all inclusion criteria and none of the exclusion criteria will return to the study center on Day-1 for protocol-specified assessments and the start of domiciling; subjects will remain domiciled at the study center throughout all study periods.
as §2
Each subject will receive the following treatments across 3 study periods: • Treatment 2A=oral administration of a single 400-mg dose of fedratinib (4×100-mg capsules) with a nutritional supplement (reference) • Treatment 2B=a single 400-mg dose of fedratinib, administered via NG tube as contents from 4×100-mg capsules dispersed into a nutritional supplement (test) • Treatment 2C=oral administration of 400-mg fedratinib with a nutritional supplement, given as a divided dose (i.e., BID [2×100-mg capsules each]) (test)
Prior to administration of Treatment 2B, a nasogastric tube will be placed and an X-ray(s) will be performed to confirm correct placement of the nasogastric tube. Following administration of Treatment 2B, the nasogastric tube will be flushed with a volume of sterile water for irrigation equal to approximately 60 mL. Lidocaine gel or a suitable therapeutic equivalent may be used to reduce participant discomfort during the nasogastric tube insertion procedure. The timing from start of the nasogastric tube placement to dosing will be up to 4 hours. Actual time of dose administration will be referred to as “0 hour.”
as §3, §4, §5
Fedratinib plasma PK parameters will be calculated using noncompartmental methods. […]

[8] = test system: patient-derived cell lines expressing JAK2V617F and cells engineered to express WT JAK2 or JAK2V617F; conditions: cited from earlier work
[9] = test system: JAK2V617F-driven MPNs; conditions: mouse models of JAK2V617F-driven MPNs; cited from earlier work
[10] = Treatment 1A: fedratinib 400 mg oral capsules with nutritional supplement, n = 27, geometric mean
[11] = Treatment 1B (dispersed in nutritional supplement) vs Treatment 1A (intact capsules), 400 mg single dose
[12] = Treatment 1B: fedratinib 400 mg dispersed in supplement, oral, n = 27, geometric mean
[13] = Treatment 2A: fedratinib 400 mg oral capsules with nutritional supplement
[14] = Treatment 2B (via NG tube) vs Treatment 2A (capsules orally), 400 mg single dose
[15] = Treatment 2B: fedratinib 400 mg in supplement via NG tube
[16] = Treatment 2C (divided dose) vs Treatment 2A (single dose)
[17] = Treatment 2C: fedratinib 2 × 200 mg capsules, divided dose

Cc1cnc(Nc2ccc(OCCN3CCCC3)cc2)nc1Nc1cccc(S(=O)(=O)NC(C)(C)C)c1 [fedratinib, N-tert-butyl-3-[(5-methyl-2-{[4-(2-pyrrolidin-1-ylethoxy)phenyl]amino}pyrimidin-4-yl)amino] benzenesulfonamide dihydrochloride monohydrate]
AUC0-∞ ([1]; Treatment 1A: fedratinib 400 mg oral capsules with nutritional supplement, geometric mean, one participant excluded (pAUCe >20%)): 22260 ng·h/mL
AUC0-t [1, 10]: 20127 ng·h/mL
Cmax [1, 10]: 1319 ng/mL
ratio of geometric means (test/reference), AUC (0-T) [1, 11]: 102%
ratio of geometric means (test/reference), AUC (INF) [1, 11]: 103%
ratio of geometric means (test/reference), Cmax [1, 11]: 108%
AUC0-∞ [1, 12]: 22838 ng·h/mL
AUC0-t [1, 12]: 20598 ng·h/mL
Cmax [1, 12]: 1425 ng/mL
effect on the pharmacokinetics of fedratinib of administration with a meal [2]: No clinically meaningful effect
effect on fedratinib PK of age, race, sex, body weight, mild or moderate hepatic impairment, mild renal impairment [3]: no clinically meaningful effect
frequency of nausea (GI-related treatment-emergent adverse event) ([4]; fasting state): 87.5%
frequency of vomiting (GI-related treatment-emergent adverse event) ([4]; fasting state): 66.7%
frequency of nausea (GI-related treatment-emergent adverse event) ([4]; fed state): 62.5%
frequency of vomiting (GI-related treatment-emergent adverse event) ([4]; fed state): 16.7%
safety signals or treatment-emergent serious adverse events [5]: No new safety signals or treatment-emergent serious adverse events were reported
phosphorylation of STAT3/STAT5 [6]: reduced
differences in exposure to fedratinib compared to a single dose of 4×100 mg capsules administered orally ([7]; 400 mg, healthy adult participants, with nutritional supplement, via NG tube, or divided capsule dose): no significant differences
AUC0-∞ [7, 13]: 24963 ng·h/mL
AUC0-t [7, 13]: 22683 ng·h/mL
Cmax [7, 13]: 1388 ng/mL
ratio of geometric means between test and reference, AUC (0-T) [7, 14]: 84%
ratio of geometric means between test and reference, AUC (INF) [7, 14]: 85%
ratio of geometric means between test and reference, Cmax [7, 14]: 90%
AUC0-∞ [7, 15]: 21334 ng·h/mL
AUC0-t [7, 15]: 19111 ng·h/mL
Cmax [7, 15]: 1246 ng/mL
ratio of geometric means between test and reference, AUC (0-T) [7, 16]: 84%
ratio of geometric means between test and reference, AUC (INF) [7, 16]: 85%
ratio of geometric means between test and reference, Cmax [7, 16]: 46%
AUC0-∞ [7, 17]: 21304 ng·h/mL
AUC0-t [7, 17]: 19002 ng·h/mL
Cmax [7, 17]: 641.4 ng/mL
apoptosis [8]: increased
cell proliferation [8]: inhibited
disease-associated symptoms, including leukopenia, anemia, splenomegaly, and fibrosis [9]: improved
phosphorylation of STAT⅗ [9]: blocked
survival [9]: increased
